# Results as given in patent US20090076168A1, “AMINE-BASED AND IMINE-BASED POLYMERS, USES AND PREPARATION THEREOF” (priority 2005, published 2009).
# System: skin
# Conditions: guaranine 50 mg/mL, 1-2 mL solution or gel/100 cm^2 of skin, young subjects, compared to untreated subjects
# Experimental: Bioactive molecules can be added and the mixture stirred for 30 minutes to 2 hours according to their liposoluble or water-soluble nature. The addition of collagen or gelatin (1-10%), Polawax™ (1-10%), cetyl alcohol (1-10%), fatty acids (stearic or palmitique, 1-10%), Tween™ 20% and terpenoid (i.e. limonene) is optional.
compound,measurement,value
Cn1c(=O)c2c(ncn2C)n(C)c1=O [guaranine],blood pressure,considerable increase
same,pulsations,considerable increase
